According to patent publication US7772180B2, “Hepatitis C virus inhibitors” (Bristol-Myers Squibb Company, priority 2006, dated 2010):
Where two headings read alike, the source gives them in different places.

Assays:
[1] = molecular target: T1, HCV NS3/4A protease complex, BMS strain (UniProt P27958, species not given/STRAIN_BMS); assay: FRET peptide assay to monitor HCV NS3/4A proteolytic activity (BMS strain); format: biochemical, Hepatitis C virus (genotype 1a); conditions: read-out: HCV Protease (IC50), NS3/4A BMS strain
T1 construct: other: NS3/4A BMS strain; activity range class; numeric values, unit not given; said of H77 and J4L6S; fused on or other part: A three-lysine solubilising tail at the C-terminus of NS4A; A His tag is implied by the pET21b vector and Ni-NTA purification; Both are printed for the H77 and J4L6S constructs and apply to BMS by inference
T1 sequence (P27958 1027-1657, change not shown, one chain of several): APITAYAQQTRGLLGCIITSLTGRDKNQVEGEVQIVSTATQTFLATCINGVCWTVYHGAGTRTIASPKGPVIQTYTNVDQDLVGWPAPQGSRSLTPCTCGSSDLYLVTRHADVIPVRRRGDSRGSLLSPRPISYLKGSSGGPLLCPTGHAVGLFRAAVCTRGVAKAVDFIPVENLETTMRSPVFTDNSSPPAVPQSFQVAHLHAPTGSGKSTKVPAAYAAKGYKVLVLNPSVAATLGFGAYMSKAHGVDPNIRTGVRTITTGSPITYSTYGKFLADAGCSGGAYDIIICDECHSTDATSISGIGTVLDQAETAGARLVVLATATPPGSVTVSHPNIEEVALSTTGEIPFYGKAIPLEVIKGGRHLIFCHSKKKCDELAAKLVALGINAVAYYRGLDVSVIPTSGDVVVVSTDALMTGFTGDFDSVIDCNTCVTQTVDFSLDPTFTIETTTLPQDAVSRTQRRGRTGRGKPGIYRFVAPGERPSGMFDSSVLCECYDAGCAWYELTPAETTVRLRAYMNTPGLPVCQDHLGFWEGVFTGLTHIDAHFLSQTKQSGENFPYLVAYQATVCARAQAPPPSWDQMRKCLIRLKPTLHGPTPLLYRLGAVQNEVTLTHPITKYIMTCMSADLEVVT
Outline: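 Purified recombinant NS3/4A complex from genotype 1a BMS strain, 2-3 nM final, with RET S1 EDANS/DABCYL depsipeptide substrate at 2 μM final in HEPES pH 7.5, NaCl, Triton, glycerol, βME. Cleavage followed in real time by fluorescence. For high-potency compounds: 50 μg/ml BSA added, protease lowered to 300 pM.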

[2] = system: HCV replicon (strain 1b) in HUH-7 cells; assay: HCV replicon FRET assay; format: cell-based, Hepatitis C virus; conditions: Hepatitis C virus, Huh-7, read-out: HCV Pro Replicon (EC50), HCV replicon cell assay

| SMILES | IC50 ([1]; activity range class) [µM] | EC50 ([2]; activity range class) [µM] | IC50 ([1]; numeric values, unit inferred) [µM] | EC50 ([2]; numeric values, unit inferred) [µM] |
| --- | --- | --- | --- | --- |
| C=C[C@@H]1C[C@]1(NC(=O)[C@@H]1C[C@@H](Oc2ncc(OC)c3ccc(Cl)cc23)CN1C(=O)[C@H](Nc1ccc(S(=O)(=O)NCC)cc1)C(C)(C)C)C(=O)NS(=O)(=O)C1CC1 [223 second isomer, N-(4-(ethylsulfamoyl)phenyl)-3-methyl-D-valyl-(4R)-4-((7-chloro-4-methoxy-1-isoquinolinyl)oxy)-N-((1R,2S)-1-((cyclopropylsulfonyl)carbamoyl)-2-vinylcyclopropyl)-L-prolinamide] | > 0.2 | > 1 |  |  |
| C=C[C@@H]1C[C@]1(NC(=O)[C@@H]1C[C@@H](Oc2ncc(OC)c3ccc(Cl)cc23)CN1C(=O)[C@@H](Nc1ccc(S(=O)(=O)N(C)C)cc1)C(C)(C)C)C(=O)NS(=O)(=O)C1CC1 [224 first isomer, N-(4-(dimethylsulfamoyl)phenyl)-3-methyl-L-valyl-(4R)-4-((7-chloro-4-methoxy-1-isoquinolinyl)oxy)-N-((1R,2S)-1-((cyclopropylsulfonyl)carbamoyl)-2-vinylcyclopropyl)-L-prolinamide] | 0.0006 to 0.02 | 0.1 to 1 |  |  |
| C=C[C@@H]1C[C@]1(NC(=O)[C@@H]1C[C@@H](Oc2ncc(OC)c3ccc(Cl)cc23)CN1C(=O)[C@H](Nc1ccc(S(=O)(=O)N(C)C)cc1)C(C)(C)C)C(=O)NS(=O)(=O)C1CC1 [224 second isomer, N-(4-(dimethylsulfamoyl)phenyl)-3-methyl-D-valyl-(4R)-4-((7-chloro-4-methoxy-1-isoquinolinyl)oxy)-N-((1R,2S)-1-((cyclopropylsulfonyl)carbamoyl)-2-vinylcyclopropyl)-L-prolinamide] | > 0.2 | 0.1 to 1 |  |  |
| C=C[C@@H]1C[C@]1(NC(=O)[C@@H]1C[C@@H](Oc2ncc(OC)c3ccc(Cl)cc23)CN1C(=O)[C@@H](Nc1ccc(C(N)=O)cc1)C(C)(C)C)C(=O)NS(=O)(=O)C1CC1 [226 first isomer, N-(4-carbamoylphenyl)-3-methyl-L-valyl-(4R)-4-((7-chloro-4-methoxy-1-isoquinolinyl)oxy)-N-((1R,2S)-1-((cyclopropylsulfonyl)carbamoyl)-2-vinylcyclopropyl)-L-prolinamide] | 0.0006 to 0.02 | 0.003 to 0.1 |  |  |
| C=C[C@@H]1C[C@]1(NC(=O)[C@@H]1C[C@@H](Oc2ncc(OC)c3ccc(Cl)cc23)CN1C(=O)[C@@H](Nc1cccc(S(=O)(=O)NC)c1)C(C)(C)C)C(=O)NS(=O)(=O)C1CC1 [227 first isomer, 3-methyl-N-(3-(methylsulfamoyl)phenyl)-L-valyl-(4R)-4-((7-chloro-4-methoxy-1-isoquinolinyl)oxy)-N-((1R,2S)-1-((cyclopropylsulfonyl)carbamoyl)-2-vinylcyclopropyl)-L-prolinamide] | 0.0006 to 0.02 | 0.003 to 0.1 |  |  |
| C=C[C@@H]1C[C@]1(NC(=O)[C@@H]1C[C@@H](Oc2ncc(OC)c3ccc(Cl)cc23)CN1C(=O)[C@H](Nc1cccc(S(=O)(=O)NC)c1)C(C)(C)C)C(=O)NS(=O)(=O)C1CC1 [227 second isomer, 3-methyl-N-(3-(methylsulfamoyl)phenyl)-D-valyl-(4R)-4-((7-chloro-4-methoxy-1-isoquinolinyl)oxy)-N-((1R,2S)-1-((cyclopropylsulfonyl)carbamoyl)-2-vinylcyclopropyl)-L-prolinamide] | > 0.2 | > 1 |  |  |
| C=C[C@@H]1C[C@]1(NC(=O)[C@@H]1C[C@@H](Oc2ncc(OC)c3ccc(Cl)cc23)CN1C(=O)[C@@H](Nc1cccc(C(=O)OC(C)C)c1)C(C)(C)C)C(=O)NS(=O)(=O)C1CC1 [231 first isomer, N-(3-(isopropoxycarbonyl)phenyl)-3-methyl-L-valyl-(4R)-4-((7-chloro-4-methoxy-1-isoquinolinyl)oxy)-N-((1R,2S)-1-((cyclopropylsulfonyl)carbamoyl)-2-vinylcyclopropyl)-L-prolinamide] | 0.0006 to 0.02 | 0.003 to 0.1 |  |  |
| C=C[C@@H]1C[C@]1(NC(=O)[C@@H]1C[C@@H](Oc2ncc(OC)c3ccc(Cl)cc23)CN1C(=O)[C@H](Nc1cccc(C(=O)OC(C)C)c1)C(C)(C)C)C(=O)NS(=O)(=O)C1CC1 [231 second isomer, N-(3-(isopropoxycarbonyl)phenyl)-3-methyl-D-valyl-(4R)-4-((7-chloro-4-methoxy-1-isoquinolinyl)oxy)-N-((1R,2S)-1-((cyclopropylsulfonyl)carbamoyl)-2-vinylcyclopropyl)-L-prolinamide] | > 0.2 | > 1 |  |  |
| C=C[C@@H]1C[C@]1(NC(=O)[C@@H]1C[C@@H](Oc2ncc(OC)c3ccc(Cl)cc23)CN1C(=O)[C@@H](Nc1cccc(C(=O)OC)c1)C(C)(C)C)C(=O)NS(=O)(=O)C1CC1 [232 first isomer, N-(3-(methoxycarbonyl)phenyl)-3-methyl-L-valyl-(4R)-4-((7-chloro-4-methoxy-1-isoquinolinyl)oxy)-N-((1R,2S)-1-((cyclopropylsulfonyl)carbamoyl)-2-vinylcyclopropyl)-L-prolinamide] | 0.0006 to 0.02 | 0.003 to 0.1 |  |  |
| C=C[C@@H]1C[C@]1(NC(=O)[C@@H]1C[C@@H](Oc2ncc(OC)c3ccc(Cl)cc23)CN1C(=O)[C@H](Nc1cccc(C(=O)OC)c1)C(C)(C)C)C(=O)NS(=O)(=O)C1CC1 [232 second isomer, N-(3-(methoxycarbonyl)phenyl)-3-methyl-D-valyl-(4R)-4-((7-chloro-4-methoxy-1-isoquinolinyl)oxy)-N-((1R,2S)-1-((cyclopropylsulfonyl)carbamoyl)-2-vinylcyclopropyl)-L-prolinamide] | 0.02 to 0.2 | 0.003 to 0.1 |  |  |
| C=C[C@@H]1C[C@]1(NC(=O)[C@@H]1C[C@@H](Oc2ncc(OC)c3ccc(Cl)cc23)CN1C(=O)[C@@H](Nc1ccccc1F)C(C)(C)C)C(=O)NS(=O)(=O)C1CC1 [234 first isomer, N-(2-fluorophenyl)-3-methyl-L-valyl-(4R)-4-[(7-chloro-4-methoxy-1-isoquinolinyl)oxy]-N-((1R,2S)-1-{[(cyclopropylsulfonyl)amino]carbonyl}-2-vinylcyclopropyl)-L-prolinamide] | 0.02 to 0.2 | 0.1 to 1 |  |  |
| C=C[C@@H]1C[C@]1(NC(=O)[C@@H]1C[C@@H](Oc2ncc(OC)c3ccc(Cl)cc23)CN1C(=O)[C@H](Nc1ccccc1F)C(C)(C)C)C(=O)NS(=O)(=O)C1CC1 [234 second isomer, N-(2-fluorophenyl)-3-methyl-D-valyl-(4R)-4-[(7-chloro-4-methoxy-1-isoquinolinyl)oxy]-N-((1R,2S)-1-{[(cyclopropylsulfonyl)amino]carbonyl}-2-vinylcyclopropyl)-L-prolinamide] | > 0.2 | > 1 |  |  |
| C=C[C@@H]1C[C@]1(NC(=O)[C@@H]1C[C@@H](Oc2nc3c(c4cc(OC)ccc24)OCCN3C)CN1C(=O)[C@H](Nc1ccc(F)c(F)c1)C(C)(C)C)C(=O)NS(=O)(=O)C1CC1 [235 second isomer, N-(3,4-difluorophenyl)-3-methyl-D-valyl-(4R)—N-((1R,2S)-1-((cyclopropylsulfonyl)carbamoyl)-2-vinylcyclopropyl)-4-((9-methoxy-4-methyl-3,4-dihydro-2H-[1,4]oxazino[3,2-c]isoquinolin-6-yl)oxy)-L-prolinamide] | 0.0006 to 0.02 | 0.003 to 0.1 |  |  |
| C=C[C@@H]1C[C@]1(NC(=O)[C@@H]1C[C@@H](Oc2nccc3cc(OC)ccc23)CN1C(=O)[C@@H](Nc1cc(C)cc(C)n1)C(C)C)C(=O)NS(=O)(=O)C1CC1 [Compound 1A, N-(4,6-dimethyl-2-pyridinyl)-L-valyl-(4R)—N-((1R,2S)-1-((cyclopropylsulfonyl)carbamoyl)-2-vinylcyclopropyl)-4-((6-methoxy-1-isoquinolinyl)oxy)-L-prolinamide] | 0.0006 to 0.02 | 0.003 to 0.1 |  |  |
| C=C[C@@H]1C[C@]1(NC(=O)[C@@H]1C[C@@H](Oc2nccc3cc(OC)ccc23)CN1C(=O)[C@H](Nc1cc(C)cc(C)n1)C(C)C)C(=O)NS(=O)(=O)C1CC1 [Compound 1B, N-(4,6-dimethyl-2-pyridinyl)-D-valyl-(4R)—N-((1R,2S)-1-((cyclopropylsulfonyl)carbamoyl)-2-vinylcyclopropyl)-4-((6-methoxy-1-isoquinolinyl)oxy)-L-prolinamide] |  |  | 0.289 | 1.64 |
| C=C[C@@H]1C[C@]1(NC(=O)[C@@H]1C[C@@H](Oc2nccc3cc(OC)ccc23)CN1C(=O)[C@@H](Nc1nc(OC)nc(OC)n1)C(C)(C)C)C(=O)NS(=O)(=O)C1CC1 [Compound 3, N-(4,6-dimethoxy-1,3,5-triazin-2-yl)-3-methyl-L-valyl-(4R)—N-((1R,2S)-1-((cyclopropylsulfonyl)carbamoyl)-2-vinylcyclopropyl)-4-((6-methoxy-1-isoquinolinyl)oxy)-L-prolinamide] | 0.0006 to 0.02 | > 1 |  |  |
| C=C[C@@H]1C[C@]1(NC(=O)[C@@H]1C[C@@H](Oc2nccc3cc(OC)ccc23)CN1C(=O)[C@@H](Nc1nc(OC)nc(OC)n1)C(C)C)C(=O)NS(=O)(=O)C1CC1 [Compound 4, N-(4,6-dimethoxy-1,3,5-triazin-2-yl)valyl-(4R)—N-((1R,2S)-1-((cyclopropylsulfonyl)carbamoyl)-2-vinylcyclopropyl)-4-((6-methoxy-1-isoquinolinyl)oxy)-L-prolinamide] | 0.02 to 0.2 | > 1 |  |  |
